This is an account of results in patent publication US4450162A, “Pyrimidine derivatives and a pharmaceutical composition containing them” (Sankyo Company, Limited, priority 1981, dated 1984).

The nature of series [1]: Antidepressant activity (general statement). As to conditions: in vivo.
For a further series, the system named is reserpine-induced ptosis. In words: Test for anti-reserpine activity (inhibition of reserpine-induced ptosis). In kind it is in vivo, male mice of the ddy strain. The settings on record: Mus musculus, po, read-out: Reserpine inhibition (percentage inhibition of reserpine-induced ptosis); for inhibition in vivo at 50 mg/kg: 50 mg/kg orally, reserpine 2 mg/kg s.c., sum of observations at 90, 120 and 180 min, groups of three mice. On the procedure:
1 Test for anti-reserpine activity
The test animals used were male mice of the ddy strain, each weighing 23-25 g. Each compound was tested on a group of three such mice. Each test compound was employed in the form of a solution or suspension in a physiological saline solution containing 0.3% w/v carboxymethylcellulose. The test employed was a partial modification of the method of Rubin et al. [J. Pharmacol. Exptl.
At each observation, each mouse was assigned from 0 to 3 points corresponding to the degree of ptosis, as follows:
0 points: eyes completely open;
1 point: eyes about one third closed;
2 points: eyes about two thirds closed;
3 points: eyes completely closed.
For each mouse, the number of points from all three observations were added together and the percentage inhibition of reserpine-induced ptosis was calculated from the following formula: [formula] in which:
Po =total number of points from three observations of an animal to which reserpine alone was administered; and
Pt =total number of points from three observations of an animal to which reserpine and the test compound were administered.

The nature of a further series: Acute toxicity test. The settings on record: for Mortality (deaths/animals tested): 7 days observation. In kind it is in vivo, male mice of the ddy strain. On the procedure: The test animals used were male mice of the ddy strain, each weighing from 21 to 25 g. To each animal was administered orally a single dose of the test compound in the amount shown in Table 2; the animals were then placed under observation for 7 days after administration. The results are reported in Table 2 as "Mortality", where the numerator indicates the number of deaths in the observation period and the denominator indicates the number of animals tested with the particular test compound at the particular dose.

Another series has as its system effects of d-amphetamine. In words: Potentiation of d-Amphetamine effects. In kind it is in vivo, male rats of the Wistar strain. The settings on record: 10 mg/kg orally, 60 min before d-amphetamine sulphate 2.5 mg/kg s.c.; observations 30-240 min; groups of 4 rats. On the procedure:
2. Potentiation of d-Amphetamine effects
The test animals used in this experiment were male rats of the Wistar strain, each weighing from 250 to 300 g. The rats were employed in groups of 4 animals each, for each test. The test compound was employed in the form of a solution or suspension in physiological saline containing 0.3% w/v carboxymethylcellulose.
Each rat was placed in an observation cage and then given orally the solution or suspension of the test compound in an amount of 10 mg of test compound per kilogram body weight; 60 minutes later, 2.5 mg/kg of d-amphetamine sulphate were injected subcutaneously. The rats were observed 30 minutes, 60 minutes, 90 minutes, 120 minutes, 150 minutes, 180 minutes and 240 minutes after the injection of the d-amphetamine sulphate. At each observation, each animal was assigned from 0 to 5 points according to its mobility, as follows:
1 point: slight moving around;
3 points: sniffing appears;
4 points: licking appears;
5 points: biting appears.
The percentage potentiation of the effects of d-amphetamine was then calculated from the following formula: [formula] where:
P'o =total number of points from all observations of an animal to which d-amphetamine alone was administered; and
P't =total number of points from all seven observations of an animal to which both the test compound and d-amphetamine were administered.

Structures can show the parent of a compound that is named as a salt.

Regarding `Cc1ncnc(Nc2ccccc2)c1Br` [4-anilino-5-bromo-6-methylpyrimidine], the antidepressant activity result in series [1] is given as “no antidepressant activity”. On to `c1ccc(Nc2ncnc3c2CCC3)cc1` [Compound No. 2, 4-Anilino-6,7-dihydro-5H-cyclopenta[d]pyrimidine hydrochloride], for which the inhibition in vivo at 50 mg/kg with reserpine-induced ptosis is 68.7%. As for `Clc1ccc(Nc2ncnc3c2CCC3)cc1` [Compound No. 3, 4-(4-Chloroanilino)-6,7-dihydro-5H-cyclopenta[d]pyrimidine], the inhibition in vivo at 50 mg/kg with reserpine-induced ptosis is 82.3%. As for `Brc1ccc(Nc2ncnc3c2CCC3)cc1` [Compound No. 5, 4-(4-Bromoanilino)-6,7-dihydro-5H-cyclopenta[d]pyrimidine], the inhibition in vivo at 50 mg/kg in the series with reserpine-induced ptosis came to 75.6%. For the same compound, the “Mortality (deaths/animals tested)” value in “Acute toxicity test” (single oral dose 500 mg/kg) and in the series “Acute toxicity test” (single oral dose 1000 mg/kg) was 0/5 throughout.

`N#Cc1ccc(Nc2ncnc3c2CCC3)cc1` [Compound No. 14, 4-(4-Cyanoanilino)-6,7-dihydro-5H-cyclopenta[d]pyrimidine]: the inhibition in vivo at 25 mg/kg with reserpine-induced ptosis is 85%. With `Cc1ncnc(Nc2ccc(Cl)cc2)c1C` [Compound No. 25, 4-(4-Chloroanilino)-5,6-dimethylpyrimidine], the inhibition in vivo at 50 mg/kg in the series with reserpine-induced ptosis is 61.1%. Besides, the “d-Amphetamine potentiation (percentage potentiation of the effects of d-amphetamine)” value in the series with effects of d-amphetamine amounted to 75%. Regarding `Cc1ncnc(Nc2ccc(Br)cc2)c1C` [Compound No. 28, 4-(4-Bromoanilino)-5,6-dimethylpyrimidine], the inhibition in vivo at 50 mg/kg with reserpine-induced ptosis was 61.1%. Moreover, in the series on effects of d-amphetamine, the “d-Amphetamine potentiation (percentage potentiation of the effects of d-amphetamine)” value is 79%. Moreover, the “Mortality (deaths/animals tested)” value in the series “Acute toxicity test” (single oral dose 1000 mg/kg) is listed as 0/5.

Consider `Cc1ncnc(Nc2ccc(C(F)(F)F)cc2)c1C` [Compound No. 38, 5,6-Dimethyl-4-(4-trifluoromethylanilino)pyrimidine], for which the inhibition in vivo at 50 mg/kg in the series with reserpine-induced ptosis stood at 68.8%. Same read-out and setting: under `Cc1ncnc(Nc2ccc(C(C)C)cc2)c1C` [Compound No. 47, 4-(4-Isopropylanilino)-5,6-dimethylpyrimidine] stands 70.6%. `CN(C)CCCN1c2ccccc2CCc2ccccc21` [Imipramine hydrochloride, reference compound]: the inhibition in vivo at 50 mg/kg in the series on reserpine-induced ptosis came out at 72.2%. For the same compound, the “d-Amphetamine potentiation (percentage potentiation of the effects of d-amphetamine)” value in the series on effects of d-amphetamine was 77%. Further, the “Mortality (deaths/animals tested)” value in the series “Acute toxicity test” (single oral dose 500 mg/kg) is on record as 3/5. Besides, the “Mortality: deaths on day 3” value in “Acute toxicity test” (single oral dose 500 mg/kg, on day 3) stood at 1. Further, the “Mortality: deaths within 1 hour” value in “Acute toxicity test” (single oral dose 500 mg/kg, within 1 hour) was 2.

With `CCc1ccc(Nc2ncnc3c2CCC3)cc1` [compound 9, 4-(4-Ethylanilino)-6,7-dihydro-5H-cyclopenta[d]pyrimidine], the inhibition in vivo at 50 mg/kg in the series with reserpine-induced ptosis stood at 82.3%. The same measure, in the same setting: under `FC(F)(F)c1ccc(Nc2ncnc3c2CCC3)cc1` [compound 11, 4-(4-Trifluoromethylanilino)-6,7-dihydro-5H-cyclopenta[d]pyrimidine] stands 62.5%. On to `Cc1ncnc(Nc2ccc(I)cc2)c1C` [compound 32, 4-(4-Iodoanilino)-5,6-dimethylpyrimidine], for which the inhibition in vivo at 50 mg/kg in the series with reserpine-induced ptosis was 43.8%. For the same compound, the “d-Amphetamine potentiation (percentage potentiation of the effects of d-amphetamine)” value in the series with effects of d-amphetamine is recorded as 76%. Turning to `CCCCc1c(C)ncnc1Nc1ccc(Br)cc1` [compound 69, 4-(4-Bromoanilino)-5-n-butyl-6-methylpyrimidine], the “d-Amphetamine potentiation (percentage potentiation of the effects of d-amphetamine)” value with effects of d-amphetamine worked out at 94%.
